What was measured:
Assay in all cases: relative viability (nuclei count vs DMSO), 5 days (fraction); higher = more cells survive
[1] = compound: C1=CC2=NC=CN=C2C=C1/C=C/3\C(=O)NC(=O)S3 + Cc1cc(Nc2cc(N3CCN(C)CC3)nc(Sc3ccc(NC(=O)C4CC4)cc3)n2)n[nH]1 [Tozasertib] (partner 0.1 µM)
In short: (§1)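 A single step with final 0.05% Triton X-100, 1% formaldehyde and 1 ug/ml Hoechst fixed the cells and stained nuclei 5 days after treatment. Lung cancer cell lines in 1536-well plates had been treated by pin tool the day after seeding with one drug alone or a fixed anchor-drug dose plus five library-drug doses (not always all listed) in √10 steps, and nuclei were counted on 4× images. Relative viability is the ratio of nuclei in treated wells to nuclei in vehicle wells, taken as the median of duplicate plates.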

BGJ398 + Linsitinib = compound: CCN1CCN(c2ccc(Nc3cc(N(C)C(=O)Nc4c(Cl)c(OC)cc(OC)c4Cl)ncn3)cc2)CC1 [BGJ398] + C[C@]1(O)C[C@@H](c2nc(-c3ccc4ccc(-c5ccccc5)nc4c3)c3c(N)nccn32)C1 [Linsitinib] (partner 1 µM)
In short: as §1

BGJ398 + Palbociclib = compound: CCN1CCN(c2ccc(Nc3cc(N(C)C(=O)Nc4c(Cl)c(OC)cc(OC)c4Cl)ncn3)cc2)CC1 [BGJ398] + CC(=O)c1c(C)c2cnc(Nc3ccc(N4CCNCC4)cn3)nc2n(C2CCCC2)c1=O [Palbociclib] (partner 0.5 µM)
In short: as §1

BGJ398 + Navitoclax = compound: CCN1CCN(c2ccc(Nc3cc(N(C)C(=O)Nc4c(Cl)c(OC)cc(OC)c4Cl)ncn3)cc2)CC1 [BGJ398] + CC1(C)CCC(c2ccc(Cl)cc2)=C(CN2CCN(c3ccc(C(=O)NS(=O)(=O)c4ccc(N[C@H](CCN5CCOCC5)CSc5ccccc5)c(S(=O)(=O)C(F)(F)F)c4)cc3)CC2)C1 [Navitoclax] (partner 0.5 µM)
In short: as §1

| Cell Line | relative viability ([1]; first compound 0.02 µM) | relative viability ([1]; first compound 0.06325 µM) | relative viability ([1]; first compound 0.2 µM) | relative viability ([1]; first compound 0.6325 µM) | relative viability ([1]; first compound 2 µM) | relative viability (BGJ398 + Linsitinib; first compound 0.01 µM) | relative viability (BGJ398 + Linsitinib; first compound 0.03162 µM) | relative viability (BGJ398 + Linsitinib; first compound 0.1 µM) | relative viability (BGJ398 + Linsitinib; first compound 0.3162 µM) | relative viability (BGJ398 + Linsitinib; first compound 1 µM) | relative viability (BGJ398 + Palbociclib; first compound 0.01 µM) | relative viability (BGJ398 + Palbociclib; first compound 0.03162 µM) | relative viability (BGJ398 + Palbociclib; first compound 0.1 µM) | relative viability (BGJ398 + Palbociclib; first compound 0.3162 µM) | relative viability (BGJ398 + Palbociclib; first compound 1 µM) | relative viability (BGJ398 + Navitoclax; first compound 0.01 µM) | relative viability (BGJ398 + Navitoclax; first compound 0.03162 µM) | relative viability (BGJ398 + Navitoclax; first compound 0.1 µM) | relative viability (BGJ398 + Navitoclax; first compound 0.3162 µM) | relative viability (BGJ398 + Navitoclax; first compound 1 µM) |
| --- | --- | --- | --- | --- | --- | --- | --- | --- | --- | --- | --- | --- | --- | --- | --- | --- | --- | --- | --- | --- |
| NCI-H1666 | 0.591 | 0.617 | 0.575 | 0.674 | 0.603 | 0.708 | 0.812 | 0.816 | 0.835 | 0.709 | 0.659 | 0.631 | 0.666 | 0.641 | 0.638 | 0.949 | 1.01 | 0.91 | 0.967 | 0.842 |
| NCI-H2085 | 0.813 | 0.874 | 0.848 | 0.848 | 0.731 | 0.872 | 0.943 | 0.975 | 1.01 | 0.934 | 0.494 | 0.476 | 0.472 | 0.447 | 0.521 | 1.09 | 1.13 | 1.15 | 1.23 | 1.05 |
| NCI-H1734 | 0.256 | 0.262 | 0.317 | 0.248 | 0.278 | 0.816 | 0.873 | 0.907 | 0.864 | 0.917 | 0.329 | 0.352 | 0.355 | 0.359 | 0.355 | 0.836 | 0.878 | 0.81 | 0.832 | 0.826 |
| NCI-H2126 | 0.841 | 0.882 | 0.857 | 0.759 | 0.528 | 0.688 | 0.692 | 0.713 | 0.739 | 0.746 | 0.374 | 0.344 | 0.36 | 0.351 | 0.335 | 0.809 | 0.831 | 0.888 | 0.839 | 0.902 |
| EMC-BAC-2 | 0.276 | 0.253 | 0.368 | 0.243 | 0.297 | 0.815 | 0.785 | 0.842 | 0.825 | 0.872 | 0.497 | 0.558 | 0.547 | 0.568 | 0.516 | 1.14 | 1.16 | 1.26 | 1.15 | 1.16 |
| NCI-H1993 | 0.545 | 0.593 | 0.612 | 0.543 | 0.436 | 0.764 | 0.791 | 0.752 | 0.894 | 0.729 | 0.674 | 0.639 | 0.655 | 0.692 | 0.724 | 1.02 | 0.836 | 0.909 | 1.02 | 0.882 |
| NCI-H520 | 0.394 | 0.378 | 0.451 | 0.416 | 0.458 | 0.934 | 0.922 | 0.735 | 0.435 | 0.367 | 0.216 | 0.19 | 0.147 | 0.142 | 0.161 | 1.11 | 1.04 | 0.833 | 0.633 | 0.547 |
| NCI-H647 | 0.398 | 0.258 | 0.423 | 0.268 | 0.357 | 1.06 | 1.29 | 1.26 | 1.17 | 1.08 | 0.388 | 0.375 | 0.517 | 0.395 | 0.413 | 0.97 | 1.26 | 1.4 | 1.14 | 1.01 |
| SK-LU-1 | 0.367 | 0.297 | 0.381 | 0.357 | 0.316 | 1.1 | 1.01 | 1.2 | 1.15 | 1.21 | 0.394 | 0.47 | 0.384 | 0.339 | 0.346 | 0.832 | 0.988 | 0.865 | 1.02 | 0.908 |
| NCI-H2009 | 0.747 | 0.77 | 0.721 | 0.744 | 0.761 | 1.18 | 1.24 | 1.14 | 1.16 | 1.17 | 0.268 | 0.222 | 0.197 | 0.268 | 0.241 | 1.21 | 1.19 | 1.18 | 1.23 | 1.17 |
| LOU-NH91 | 0.619 | 0.739 | 0.634 | 0.63 | 0.588 | 0.903 | 0.539 | 0.933 | 0.557 | 0.911 | 0.555 | 0.544 | 0.553 | 0.559 | 0.536 | 0.685 | 0.402 | 0.668 | 0.427 | 0.701 |
| NCI-H2405 | 0.764 | 0.768 | 0.73 | 0.727 | 0.637 | 0.863 | 0.892 | 0.982 | 1.07 | 1.01 | 0.523 | 0.586 | 0.52 | 0.553 | 0.547 | 0.806 | 0.926 | 0.969 | 0.941 | 0.872 |
| LCLC-97TM1 | 0.201 | 0.224 | 0.194 | 0.211 | 0.145 | 0.169 | 0.159 | 0.194 | 0.212 | 0.186 | 0.177 | 0.221 | 0.262 | 0.197 | 0.267 | 0.315 | 0.271 | 0.41 | 0.683 | 0.646 |
| NCI-H727 | 0.676 | 0.703 | 0.736 | 0.569 | 0.545 | 0.345 | 0.281 | 0.286 | 0.291 | 0.301 | 0.806 | 0.651 | 0.647 | 0.686 | 0.691 | 0.487 | 0.485 | 0.337 | 0.547 | 0.453 |
| H3255 | 0.575 | 0.644 | 0.55 | 0.602 | 0.698 | 0.887 | 0.35 | 0.919 | 0.708 | 1.05 | 0.281 | 0.321 | 0.314 | 0.315 | 0.314 | 0.477 | 0.161 | 0.614 | 0.408 | 0.548 |
